From ChEMBL document CHEMBL4184317, “Discovery of Tetrahydroquinoxalines as Bromodomain and Extra-Terminal Domain (BET) Inhibitors with Selectivity for the Second Bromodomain” (J Med Chem, 2018)
≈ marks a conversion by molar mass, not a printed value.

How the values were obtained:
[1] = biological target: Bromodomain-containing protein 4 (Homo sapiens, UniProt O60885, Y390A)
physchem = details: buffer
Description: Chromatographic hydrophobicity index, log D of the compound at pH 7.4 by HPLC method

[2] = biological target: Bromodomain-containing protein 4 (Homo sapiens, UniProt O60885, Y97A)
PBMC = experiment: cells; details: Homo sapiens, read-out: pIC50 (converted)
Description: Antiinflammatory activity in human PBMC assessed as inhibition of LPS-induced MCP1 release preincubated for 30 mins followed by LPS challenge measured after 24 hrs by immunoassay

[3] = biological target: T1, Bromodomain testis-specific protein (Homo sapiens, UniProt Q58F21); experiment: Inhibition of BRDT BD2 (unknown origin) after 30 mins by TR-FRET assay
Homo sapiens [4] = species: Homo sapiens; experiment: Selectivity ratio of IC50 for human BRD2 BD1 to IC50 for human BRD2 BD2
[5] = Solubility of the compound in FaSSIF at pH 6.5 after 16 hrs by HPLC method; format: physicochemical
[6] = biological target: T2, Bromodomain-containing protein 2 (Homo sapiens, UniProt P25440); experiment: Inhibition of human BRD2 BD1 after 30 mins by TR-FRET assay
T2 sequence (P25440 whole entry): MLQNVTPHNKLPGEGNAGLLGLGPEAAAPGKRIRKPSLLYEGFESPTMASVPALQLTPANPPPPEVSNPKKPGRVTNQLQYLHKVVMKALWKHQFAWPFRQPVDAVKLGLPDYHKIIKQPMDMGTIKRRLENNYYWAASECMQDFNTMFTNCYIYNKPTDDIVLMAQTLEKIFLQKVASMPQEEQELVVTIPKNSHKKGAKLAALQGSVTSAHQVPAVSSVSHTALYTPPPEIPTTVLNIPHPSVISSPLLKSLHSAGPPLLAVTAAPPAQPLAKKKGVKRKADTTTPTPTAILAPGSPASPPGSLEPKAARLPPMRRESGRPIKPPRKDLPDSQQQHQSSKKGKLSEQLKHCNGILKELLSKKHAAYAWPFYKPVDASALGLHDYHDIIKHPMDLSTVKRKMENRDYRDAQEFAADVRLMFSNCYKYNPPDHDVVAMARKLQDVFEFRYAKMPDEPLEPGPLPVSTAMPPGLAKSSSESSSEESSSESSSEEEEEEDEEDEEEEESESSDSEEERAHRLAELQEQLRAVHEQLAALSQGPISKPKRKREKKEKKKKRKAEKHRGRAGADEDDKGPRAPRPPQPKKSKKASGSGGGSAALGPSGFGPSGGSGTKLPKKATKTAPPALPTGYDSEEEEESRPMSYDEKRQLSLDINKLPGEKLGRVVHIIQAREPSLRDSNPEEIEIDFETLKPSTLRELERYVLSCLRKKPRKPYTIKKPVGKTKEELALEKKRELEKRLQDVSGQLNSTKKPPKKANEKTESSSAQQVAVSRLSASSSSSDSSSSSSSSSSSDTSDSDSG

[7] = biological target: T3, Bromodomain-containing protein 3 (Homo sapiens, UniProt Q15059); experiment: Inhibition of BRD3 BD2 (unknown origin) after 30 mins by TR-FRET assay
T3 sequence (Q15059 whole entry): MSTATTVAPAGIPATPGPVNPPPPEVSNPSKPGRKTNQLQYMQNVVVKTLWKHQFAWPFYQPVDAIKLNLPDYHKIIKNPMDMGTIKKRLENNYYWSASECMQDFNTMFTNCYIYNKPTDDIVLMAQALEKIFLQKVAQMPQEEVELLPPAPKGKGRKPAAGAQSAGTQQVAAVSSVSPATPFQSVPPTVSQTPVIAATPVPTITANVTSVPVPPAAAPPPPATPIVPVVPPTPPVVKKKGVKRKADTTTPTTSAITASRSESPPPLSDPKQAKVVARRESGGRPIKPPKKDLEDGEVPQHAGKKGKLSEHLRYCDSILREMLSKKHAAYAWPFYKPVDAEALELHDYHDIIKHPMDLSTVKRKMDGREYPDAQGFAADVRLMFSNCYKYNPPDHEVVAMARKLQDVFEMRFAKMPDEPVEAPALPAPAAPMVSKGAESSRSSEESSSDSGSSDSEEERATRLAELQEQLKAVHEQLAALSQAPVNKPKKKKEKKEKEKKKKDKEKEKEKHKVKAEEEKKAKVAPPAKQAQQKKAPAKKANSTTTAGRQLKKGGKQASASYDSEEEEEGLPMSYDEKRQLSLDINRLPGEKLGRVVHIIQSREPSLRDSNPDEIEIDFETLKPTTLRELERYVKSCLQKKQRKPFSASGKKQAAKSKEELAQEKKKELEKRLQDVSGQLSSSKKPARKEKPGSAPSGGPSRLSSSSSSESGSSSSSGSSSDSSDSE

Homo sapiens [8] = species: Homo sapiens; experiment: Selectivity ratio of IC50 for BRD3 BD1 (unknown origin) to IC50 for BRD3 BD2 (unknown origin)
[9] = biological target: T3, Bromodomain-containing protein 3; experiment: Inhibition of BRD3 BD1 (unknown origin) after 30 mins by TR-FRET assay
[10] = biological target: T1, Bromodomain testis-specific protein; experiment: Inhibition of BRDT BD1 (unknown origin) after 30 mins by TR-FRET assay
Homo sapiens [11] = species: Homo sapiens; experiment: Selectivity ratio of IC50 for BRDT BD1 (unknown origin) to IC50 for BRDT BD2 (unknown origin)
Blood = experiment: Antiinflammatory activity in human whole blood assessed as inhibition of LPS-induced MCP1 release preincubated for 30 mins followed by LPS challenge measured after 24 hrs by immunoassay; format: functional, tissue-based
[12] = Permeability of the compound by PAMPA; format: ADME; details: read-out: permeability
[13] = Solubility of the compound in pH 7.4 phosphate buffered saline by chemiluminescent nitrogen detection method; format: physicochemical
Peregrin = biological target: T4, Peregrin (Homo sapiens, UniProt P55201); experiment: Displacement of Alexa 647 ligand from 6H-Flag-Tev-BRPF1 (622 to 738 residues) (unknown origin) expressed in Escherichia coli BL21 (DE3) cells after 30 mins by TR-FRET assay
T4 sequence (P55201 whole entry): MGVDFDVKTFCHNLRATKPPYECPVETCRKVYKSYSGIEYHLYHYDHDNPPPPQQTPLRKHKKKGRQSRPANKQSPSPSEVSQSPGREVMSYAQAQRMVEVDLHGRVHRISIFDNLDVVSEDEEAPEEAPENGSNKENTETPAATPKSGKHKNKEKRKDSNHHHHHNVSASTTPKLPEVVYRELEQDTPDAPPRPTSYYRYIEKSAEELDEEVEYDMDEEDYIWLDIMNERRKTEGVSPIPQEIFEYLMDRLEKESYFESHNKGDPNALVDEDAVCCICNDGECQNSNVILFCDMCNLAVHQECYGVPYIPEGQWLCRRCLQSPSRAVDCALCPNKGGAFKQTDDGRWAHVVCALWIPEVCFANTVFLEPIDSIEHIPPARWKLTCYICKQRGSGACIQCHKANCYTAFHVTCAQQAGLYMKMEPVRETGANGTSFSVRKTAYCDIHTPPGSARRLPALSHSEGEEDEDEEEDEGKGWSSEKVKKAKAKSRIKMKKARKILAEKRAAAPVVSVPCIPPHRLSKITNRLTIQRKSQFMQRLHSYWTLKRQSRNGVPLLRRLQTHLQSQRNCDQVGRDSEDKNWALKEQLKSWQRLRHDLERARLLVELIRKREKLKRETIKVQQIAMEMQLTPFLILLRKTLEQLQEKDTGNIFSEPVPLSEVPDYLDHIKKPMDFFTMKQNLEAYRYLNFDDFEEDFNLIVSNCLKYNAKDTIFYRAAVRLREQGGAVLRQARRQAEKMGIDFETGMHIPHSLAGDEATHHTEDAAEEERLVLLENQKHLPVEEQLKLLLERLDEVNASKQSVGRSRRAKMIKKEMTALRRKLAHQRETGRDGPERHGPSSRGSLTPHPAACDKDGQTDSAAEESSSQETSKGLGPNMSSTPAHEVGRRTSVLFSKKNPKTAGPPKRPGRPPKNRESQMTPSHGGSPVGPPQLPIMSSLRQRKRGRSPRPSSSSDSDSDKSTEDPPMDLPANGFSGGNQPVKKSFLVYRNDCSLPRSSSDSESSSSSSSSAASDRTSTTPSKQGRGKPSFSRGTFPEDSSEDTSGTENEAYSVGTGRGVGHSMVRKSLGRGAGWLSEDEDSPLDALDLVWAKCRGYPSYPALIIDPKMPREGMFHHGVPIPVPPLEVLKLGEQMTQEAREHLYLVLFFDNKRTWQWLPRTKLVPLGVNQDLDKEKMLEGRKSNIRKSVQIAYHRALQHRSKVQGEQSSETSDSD

[14] = biological target: T2, Bromodomain-containing protein 2; experiment: Inhibition of human BRD2 BD2 after 30 mins by TR-FRET assay

Structure (SMILES) | IC50 [1] [nM] | chromatographic logD (physchem; pH 7.4, logD) | IC50 [2] [nM] | further results
CC(=O)N1c2ccccc2N(Cc2ccccc2CN)CC1C1CC1 (centres undefined) | 20000 | 2.7 | 631 | 
CC(=O)N1CCN(Cc2ccccc2C(=O)O)c2ccccc21 | > 50100 | 1.2 | 5010 | 
CC(=O)N1c2ccccc2N(Cc2ccccc2CO)CC1C1CC1 (single isomer, unassigned; enantiomer 2) | > 50100 |  | > 50100 | 
CC(=O)N1c2ccc(-c3ccc(C(=O)O)cc3)cc2[C@H](Nc2ccc(Cl)cc2)C[C@@H]1C |  | 3.9 |  | 
CCC1CN(Cc2ccccc2)c2cc(-c3cn[nH]c3)ccc2N1C(C)=O (centres undefined) | 398 | 4.2 | 50.1 | 
CCC1CN(Cc2ccccc2)c2cc(-c3ccc(=O)[nH]c3)ccc2N1C(C)=O (centres undefined) | 794 | 3.5 | 79.4 | 
CC(=O)N1c2ccccc2N(Cc2ccc(Cl)cc2C(=O)O)CC1C1CC1 (centres undefined) | 39800 | 2.9 | 1260 | IC50 (PBMC): 12600 nM
CCC1CN(Cc2ccccc2)c2cc(-c3cnoc3)ccc2N1C(C)=O (centres undefined) | 1580 | 5.9 | 126 | 
COc1cc(OC)c2c(=O)[nH]c(-c3cc(C)c(OCCO)c(C)c3)nc2c1 [APABETALONE] |  | 2.9 |  | 
CCC1CN(Cc2ccccc2)c2cc(-c3cnc(C)cn3)ccc2N1C(C)=O (centres undefined) | 2000 | 6.1 | 126 | 
CC(=O)N1CCN(Cc2ccccc2)c2ccccc21 | 10000 | 5.6 | 2510 | 
COc1ccccc1CN1CC(C2CC2)N(C(C)=O)c2ccccc21 (centres undefined) | 15800 | 6.9 | 398 | IC50 (PBMC): 2000 nM
CC(=O)N1c2ccccc2N(Cc2ccccc2C#N)CC1C1CC1 (centres undefined) | 25100 | 6 | 2510 | 
CCC1CN(Cc2ccccc2)c2cc(C3=CCNCC3)ccc2N1C(C)=O (centres undefined) | 3160 |  | 158 | chromatographic logD (physchem; pH 7.4): 2.8
CC(=O)N1c2ccc(-c3cnc(C(N)=O)nc3)cc2N(Cc2ccccc2CO)C[C@@H]1C1CC1 | 2000 | 3 | 50.1 | IC50 [3]: 100 nM; Ratio IC50 (Homo sapiens [4]): 16; solubility at 16 h [5]: 18 µg/mL (≈ 39.3 µM); IC50 [6]: 1580 nM; IC50 [7]: 31.6 nM; Ratio IC50 (Homo sapiens [8]): 25; IC50 [9]: 794 nM; IC50 [10]: 501 nM; Ratio IC50 (Homo sapiens [11]): 5; IC50 (Blood): 398 nM; Papp [12]: 13.5 ×10⁻⁶ cm/s; IC50 (PBMC): 63.1 nM; solubility [13]: 87 µM (≈ 39.8 µg/mL); IC50 (Peregrin): > 100000 nM; IC50 [14]: 100 nM
CC(=O)N1c2ccccc2N(Cc2ccccc2OCCO)CC1C1CC1 (centres undefined) | 25100 | 4.9 | 316 | 

Structure (SMILES) | IC50 [1] [nM] | chromatographic logD (physchem; pH 7.4, logD) | IC50 [2] [nM] | further results
CC(=O)N1c2ccccc2N(Cc2ccccc2O)CC1C1CC1 (centres undefined) | 20000 | 5.2 | 501 | IC50 (PBMC): 1260 nM
CC(=O)N1c2ccccc2N(Cc2ccccc2C(=O)O)CC1C1CC1 (centres undefined) | > 50100 | 2.2 | 794 | IC50 (PBMC): 2510 nM
CCC1CN(Cc2ccccc2)c2cc(-c3ccc(C(N)=O)nc3)ccc2N1C(C)=O (centres undefined) | 631 | 4.5 | 63.1 | 
CCC1CN(Cc2ccccc2)c2cc(C3=CCOCC3)ccc2N1C(C)=O (centres undefined) | 1580 | 6.5 | 158 | 
CCC1CN(Cc2ccccc2)c2cc(-c3ccc(C(N)=O)cc3)ccc2N1C(C)=O (centres undefined) | 398 | 4.4 | 50.1 | 
CC(=O)N1c2ccccc2N(Cc2ccccc2CC(=O)O)CC1C1CC1 (centres undefined) | > 50100 | 2.4 | 1000 | IC50 (PBMC): 1260 nM
CCC1CN(Cc2ccccc2)c2cc(-c3cccnc3)ccc2N1C(C)=O (centres undefined) | 1580 | 5.6 | 100 | 
CCC1CN(Cc2ccccc2)c2cc(-c3cnc(C#N)nc3)ccc2N1C(C)=O (centres undefined) | 251 | 6.3 | 100 | 
CCC1CN(Cc2ccccc2)c2cc(-c3cncnc3)ccc2N1C(C)=O (centres undefined) | 3160 | 4.9 | 158 | 
CC(=O)N1c2ccccc2N(Cc2ccccc2C(N)=O)CC1C1CC1 (centres undefined) | > 50100 | 3.9 | 1260 | 
CC(=O)N1c2ccccc2N(Cc2ccccc2CO)CC1C1CC1 (racemic) | 31600 | 4.9 | 501 | 
CCC1CN(Cc2ccccc2)c2cc(-c3cccc(C(N)=O)c3)ccc2N1C(C)=O (centres undefined) | 501 | 4.7 | 63.1 | 
CCC1CN(Cc2ccccc2)c2cc(-c3ccncc3OC)ccc2N1C(C)=O (centres undefined) | 5010 | 5.4 | 501 | 
CCC1CN(Cc2ccccc2)c2cc(-c3cnc(C(N)=O)nc3)ccc2N1C(C)=O (centres undefined) | 2000 | 3.6 | 100 | 
CCOC(=O)c1ccccc1CN1CC(C2CC2)N(C(C)=O)c2ccccc21 (centres undefined) | 12600 | 7.2 | 1000 | 

Continued, in another order:

IC50 [1] [nM] | chromatographic logD (physchem; pH 7.4, logD) | IC50 [2] [nM] | Structure (SMILES) | further results
39800 | 1.5 | 1580 | CC(=O)N1c2ccccc2N(Cc2ccccc2C(=O)O)CC1C (centres undefined) | 
10000 | 6.5 | 631 | CCC1CN(Cc2ccccc2)c2ccccc2N1C(C)=O (centres undefined) | 
20000 | 6.5 | 1000 | CC(=O)N1c2ccccc2N(Cc2cccc(C)c2)CC1C (centres undefined) | 
15800 | 5.9 | 501 | CC(=O)N1CCN(Cc2cccc(C)c2)c2ccccc21 | IC50 (PBMC): 3160 nM
2510 | 7.4 | 316 | CCC1CN(Cc2ccccc2)c2cc(Br)ccc2N1C(C)=O (centres undefined) | 
15800 | 4.9 | 631 | CC(=O)N1c2ccccc2N(Cc2cccc(O)c2)CC1C1CC1 (centres undefined) | 
25100 | 7.2 | 794 | CC(=O)N1c2ccccc2N(Cc2cccc(C)c2)CC1C1CC1 (centres undefined) | 
25100 | 4.7 | 794 | CC(=O)N1c2ccccc2N(Cc2cccc(CO)c2)CC1C1CC1 (centres undefined) | IC50 (PBMC): 631 nM
15800 | 5.9 | 501 | CC(=O)N1c2ccccc2N(Cc2ccccc2)CC1C (centres undefined) | IC50 (PBMC): 1260 nM
20000 | 6.7 | 631 | CC(=O)N1c2ccccc2N(Cc2ccccc2)CC1C1CC1 (centres undefined) | IC50 (PBMC): 3160 nM
12600 | 7.1 | 794 | CCC1CN(Cc2cccc(C)c2)c2ccccc2N1C(C)=O (centres undefined) | 
> 50100 | 2.4 | 2510 | CC(=O)N1c2ccccc2N(Cc2cc(C)ccc2C(=O)O)CC1C1CC1 (centres undefined) | 
20000 | 7.5 | 501 | CC(=O)N1c2ccccc2N(Cc2ccccc2N(C)C)CC1C1CC1 (centres undefined) | IC50 (PBMC): 1580 nM
31600 |  | 1260 | CC(=O)N1CC(C)N(Cc2ccccc2)c2ccccc21 (centres undefined) | 
